Experimental data from patent publication US20140248263A1, “BISPHENOL COMPOUNDS AND METHODS FOR THEIR USE” (THE UNIVERSITY OF BRITISH COLUMBIA, priority 2011, published 2014).

Target: T1, androgen receptor (AR) (Homo sapiens, UniProt P10275, T878A)
T1 construct: LNCaP cells express endogenous AR; endogenous in cells; host or cells: LNCaP
T1 sequence (P10275 1-920 T878A): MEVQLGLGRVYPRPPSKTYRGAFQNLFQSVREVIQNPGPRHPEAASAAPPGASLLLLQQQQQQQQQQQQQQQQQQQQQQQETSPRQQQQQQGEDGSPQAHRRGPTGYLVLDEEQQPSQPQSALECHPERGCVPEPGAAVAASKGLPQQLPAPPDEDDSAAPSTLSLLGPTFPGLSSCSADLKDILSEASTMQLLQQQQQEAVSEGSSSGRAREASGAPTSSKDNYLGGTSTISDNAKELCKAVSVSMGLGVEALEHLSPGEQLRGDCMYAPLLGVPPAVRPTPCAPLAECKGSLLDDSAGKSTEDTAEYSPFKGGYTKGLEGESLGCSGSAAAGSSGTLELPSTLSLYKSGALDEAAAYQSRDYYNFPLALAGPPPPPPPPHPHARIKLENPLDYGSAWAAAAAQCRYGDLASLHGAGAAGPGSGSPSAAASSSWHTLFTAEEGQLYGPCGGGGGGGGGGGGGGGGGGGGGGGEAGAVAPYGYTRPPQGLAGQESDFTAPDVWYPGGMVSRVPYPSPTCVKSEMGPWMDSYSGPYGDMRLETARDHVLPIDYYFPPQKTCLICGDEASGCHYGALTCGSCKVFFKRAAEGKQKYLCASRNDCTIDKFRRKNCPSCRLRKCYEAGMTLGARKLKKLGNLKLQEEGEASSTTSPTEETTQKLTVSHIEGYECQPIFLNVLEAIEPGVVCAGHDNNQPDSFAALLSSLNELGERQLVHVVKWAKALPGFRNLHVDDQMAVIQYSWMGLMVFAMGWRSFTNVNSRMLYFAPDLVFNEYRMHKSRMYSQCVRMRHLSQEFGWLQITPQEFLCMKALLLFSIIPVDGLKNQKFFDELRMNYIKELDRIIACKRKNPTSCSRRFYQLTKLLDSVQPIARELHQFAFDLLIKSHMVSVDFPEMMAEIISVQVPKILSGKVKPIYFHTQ
Experiment: PSA (6.1 kb)-luciferase reporter assay in LNCaP cells induced with R1881
Format: cell-based
Settings: LNCaP cells transfected with PSA (6.1 kb)-luciferase; 1 h pre-treatment, R1881 1 nM, 48 h; relative luciferase activity
From the text: LNCaP cells were employed initially for all experiments because they are well-differentiated human prostate cancer cells in which ligand-independent activation of the AR by FSK has been characterized (Nazareth et al 1996 J. Biol. Chem. 271, 19900-19907; and Sadar 1999 J. Biol. Chem. 274, 7777-7783). LNCaP cells express endogenous AR and secrete prostate-specific antigen (PSA) (Horoszewicz et al 1983Cancer Res. 43, 1809-1818). LNCaP cells can be grown either as monolayers in cell culture or as tumors in the well-characterized xenograft model that progresses to androgen independence in castrated hosts (Sato et al 1996 J. Steroid Biochem. Mol. Biol. 58, 139-146; Gleave et al 1991 Cancer Res. 51, 3753-3761; Sato et al 1997 Cancer Res. 57, 1584-1589; and Sadar et al 2002 Mol. Cancer. Ther. 1(8), 629-637). R1881 was employed since it is stable and avoids problems associated with the labile physiological ligand dihydrotestosterone (DHT). Reporter specificity may be determined using several alternative reporter gene constructs. Some well characterized ARE-driven reporter gene constructs that have been used extensively are the PSA (6.1 kb) enhance/promoter which contains several AREs and is highly inducible by androgens as well as by FSK (Ueda et al 2002 A J. Biol. Chem. 277, 7076-7085) and the ARR3-thymidine kinase (tk)-luciferase, which is an artificial reporter construct that contains three tandem repeats of the rat probasin ARE1 and ARE2 regions upstream of a luciferase reporter (Snoek et al 1996 J. Steroid Biochem. Mol. Biol. 59, 243-250).
LNCaP cells were transiently cotransfected with PSA (6.1 kb)-luciferase (0.25 μg/well) in 24-well plates for 24 h prior to pre-treatment with compounds for 1 hour before the addition of synthetic androgen, R1881 (1 nM), to induce PSA production or vehicle. The total amount of plasmid DNA transfected was normalized to 0.75 μg/well by the addition of the empty vector. After 48 h of incubation with R1881, the cells were harvested, and relative luciferase activity was determined. Test compounds were added to the cells at various concentrations and activity for each treatment was normalized to the predicted maximal activity induction (in the absence of test compounds, vehicle only). Plotting of sigmoidal curves (Boltzmann Function) and IC50 calculations were done using OriginPro 8.1 Sofware (Northampton, Mass., USA). Furthermore, toxicity was assessed by both microscopic examination and reduction of protein levels. Solubility was assessed both macroscopically (cloudy media) and microscopically (formation of granules or crystals).

Structure (SMILES)	IC50 [nM]
C#CCOC[C@@H](O)COc1ccc(C(C)(C)c2ccc(OC[C@H](O)CCl)cc2)cc1 [Compound 16]	6940
C#CCOC[C@@H](O)COc1ccc(C(C)(C)c2ccc(OC[C@@H](O)CCl)cc2)cc1 [Compound 18]	1300
COCC(O)COc1ccc(C(C)(C)c2ccc(OCC(O)CCl)cc2)cc1 (centres unmarked) [Compound 30, 1-chloro-3-(4-(2-(4-(2-hydroxy-3-methoxypropoxy)phenyl)propan-2-yl)phenoxy)propan-2-ol]	11500
CC(C)OCC(O)COc1ccc(C(C)(C)c2ccc(OCC(O)CCl)cc2)cc1 (centres unmarked) [Compound 32, 1-chloro-3-(4-(2-(4-(2-hydroxy-3-isopropdxypropoxy)phenyl)propan-2-yl)phenoxy)propan-2-ol]	4500
CCCCOCC(O)COc1ccc(C(C)(C)c2ccc(OCC(O)COCCCC)cc2)cc1 (centres unmarked) [Compound 33, 3,3′-(4,4′-(propane-2,2-diyl)bis(4,1-phenylene))bis(oxy)bis(1-butoxypropan-2-ol)]	700
CCCCOCC(O)COc1ccc(C(C)(C)c2ccc(OCC(O)CCl)cc2)cc1 (centres unmarked) [Compound 34, 1-butoxy-3-(4-(2-(4-(3-chloro-2-hydroxypropoxy)phenyl)propan-2-yl)phenoxy)propan-2-ol]	1740

Next, values leading:

IC50 [nM]	Structure (SMILES)
1600	C#CCOCC(O)COc1ccc(C(C)(C)c2ccc(OCC(O)CCl)cc2)cc1 (centres unmarked) [Compound 3, 1-chloro-3-(4-(2-(4-(2-hydroxy-3-(prop-2-ynyloxy)propoxy)phenyl)propan-2-YL)phenoxy)propan-2-ol]
4500	C#CCOCC(O)COc1ccc(C(C)(C)c2ccc(OCC(O)CO)cc2)cc1 (centres unmarked) [Compound 5, 3-(4-(2-(4-(2-hydroxy-3-(prop-2-ynyloxy)propoxy)phenyl)propan-2-yl)phenoxy)propane-1,2-diol]
2200	C#CCOC[C@H](O)COc1ccc(C(C)(C)c2ccc(OC[C@@H](O)CCl)cc2)cc1 [Compound 10, (R)-1-chloro-3-(4-(2-(4-((S)-2-hydroxy-3-(prop-2-ynyloxy)propoxy)phenyl)propan-2-yl)phenoxy)propan-2-ol]
2200	C#CCOC[C@H](O)COc1ccc(C(C)(C)c2ccc(OC[C@H](O)CCl)cc2)cc1 [Compound 12]
4500	CC(C)OCC(O)COc1ccc(C(C)(C)c2ccc(OCC(O)COC(C)C)cc2)cc1 (centres unmarked) [Compound 31, 3,3′-(4,4′-(propane-2,2-diyl)bis(4,1-phenylene))bis(oxy)bis(1-isopropoxypropan-2-ol)]
